Test results taken from patent US11413278B2, “Compounds and methods for promoting stress resistance” (priority 2015, dated 2022).
Where two headings read alike, the source gives them in different places.

Tests used:
[1] = system: LC3A/B puncta; assay: Autophagy induction analysis (LC3A/B puncta immuno-staining); format: cell-based, human
Method: Immuno-staining of LC3A/B was performed, following a standard protocol. Briefly, WI-38 cells were treated with small molecules for 24 hrs, and then processed and incubated with primary antibody (Cell Signaling, rabbit anti-LC3A/B, 1:100) overnight at 4° C. Next day, samples were processed and incubated with fluorophore-conjugated secondary antibody and further incubated with DAPI dye. Images were collected on the INCell Analyzer 2000 (Experiment 1: 10× objective; Experiment 2: 20× objective) and analyzed with the Developer Toolbox. For Experiment 2, lysosomal-associated membrane protein 2 (LAMP2) was also counter-stained to identify the LC3A/B puncta that colocalize with lysosome and the data were analyzed by the MetaXpress software (Molecular Devices, version 5.1). The intensity of total (Exp. 1) or LAMP2-colocalized LC3A/B puncta (Exp. 2) was normalized the total numbers nuclei in the fields.
These assays were performed, following the same procedures to analyze DNA-damage markers. WI-38 cells were incubated with small molecules for 24 hrs, and then processed and incubated with primary antibody (rabbit anti-LC3A/B, 1:100) overnight at 4 C. The next day, samples were processed and incubated with fluorophore-conjugated secondary antibody and further incubated with DAPI dye. Images were collected on an INCell Analyzer 2000 and analyzed with the Developer software. Total LC3A/B puncta intensity was normalized the total numbers of DAPI-positive nuclei.

[2] = target: T1, human PARP1 (Homo sapiens, UniProt P09874); assay: PARP inhibitor assay (HT Fluorescent Homogeneous PARP Inhibition Assay Kit); format: biochemical; conditions: score
T1 construct: purchased Trevigen
Summary of the method: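 Human PARP1 with NAD and activated DNA, compounds at 10 μM final, 30 min at room temperature in dark. Resazurin/diaphorase cycling mix then added for 1 hr in dark before stop buffer; fluorescent homogeneous kit read-out.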

[3] = system: NRF2; assay: in vitro; format: cell-based, human
[4] = system: NRF2; assay: qPCR analysis of NRF2-regulated genes; format: cell-based, human; conditions: for Potential NRF2 Activation (>=2 target genes induced, by >=1.5-fold): Assay 13(p); for fold induction at 10 µM: Homo sapiens
Summary of the method: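 WI-38 cells treated with compound at 10 μM for 24 hrs, then processed by Cells-to-Ct for RNA isolation, RT and qPCR of NRF2-regulated genes (HMOX1, NQO1, GCLC, GSTM1). Expression normalized to B2M, PPIA and GAPDH; siRNA knockdown of FOXO3 or NRF2 (10 nM) preceded treatment in some runs.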

[5] = 24 h, Assay 12(o), at 10 uM, qPCR, read-out: Induction of NRF2-regulated genes: GSTM1 normalized fold-change
[6] = 24 h, Assay 12(o), at 10 uM, qPCR, read-out: Induction of NRF2-regulated genes: HMOX1 normalized fold-change
[7] = 24 h, Assay 12(o), at 10 uM, qPCR, read-out: Induction of NRF2-regulated genes: NQO1 normalized fold-change
[8] = rounded fold change, WI-38 cells, 10 μM, 24 hrs (RP11 for Gr-1D, RP29 for Gr-4D), read-out: Summary of effects on NRF2-regulated genes: HMOX1
[9] = rounded fold change, WI-38 cells, 10 μM, 24 hrs (RP29 for Gr-4D), read-out: Summary of effects on NRF2-regulated genes: GSTM1
[10] = rounded fold change, WI-38 cells, 10 μM, 24 hrs (RP29 for Gr-4D), read-out: Summary of effects on NRF2-regulated genes: NQO1
[11] = 10 μM, 24 hrs, WI-38, read-out: Expression of at least two NRF2 target genes
[12] = 10 μM, 24 hrs, WI-38 cells, qPCR, normalized to B2M, n = 4, read-out: GSTM1 expression, normalized fold change (NRF2-regulated gene)
[13] = 10 μM, 24 hrs, WI-38 cells, qPCR, normalized to B2M, n = 4, read-out: HMOX1 expression, normalized fold change (NRF2-regulated gene)
[14] = 10 μM, 24 hrs, WI-38 cells, qPCR, normalized to B2M, n = 4, read-out: NQO1 expression, normalized fold change (NRF2-regulated gene)
[15] = WI-38 cells, 10 μM, 24 hrs, n=4, qPCR normalized by B2M, read-out: GCLC Normalized fold change
[16] = WI-38 cells, 10 μM, 24 hrs, n=4, qPCR normalized by B2M, read-out: GSTM1 Normalized fold change
[17] = WI-38 cells, 10 μM, 24 hrs, n=4, qPCR normalized by B2M, read-out: HMOX1 Normalized fold change
[18] = WI-38 cells, 10 μM, 24 hrs, n=4, qPCR normalized by B2M, read-out: NQO1 Normalized fold change

T1 sequence (P09874 whole entry): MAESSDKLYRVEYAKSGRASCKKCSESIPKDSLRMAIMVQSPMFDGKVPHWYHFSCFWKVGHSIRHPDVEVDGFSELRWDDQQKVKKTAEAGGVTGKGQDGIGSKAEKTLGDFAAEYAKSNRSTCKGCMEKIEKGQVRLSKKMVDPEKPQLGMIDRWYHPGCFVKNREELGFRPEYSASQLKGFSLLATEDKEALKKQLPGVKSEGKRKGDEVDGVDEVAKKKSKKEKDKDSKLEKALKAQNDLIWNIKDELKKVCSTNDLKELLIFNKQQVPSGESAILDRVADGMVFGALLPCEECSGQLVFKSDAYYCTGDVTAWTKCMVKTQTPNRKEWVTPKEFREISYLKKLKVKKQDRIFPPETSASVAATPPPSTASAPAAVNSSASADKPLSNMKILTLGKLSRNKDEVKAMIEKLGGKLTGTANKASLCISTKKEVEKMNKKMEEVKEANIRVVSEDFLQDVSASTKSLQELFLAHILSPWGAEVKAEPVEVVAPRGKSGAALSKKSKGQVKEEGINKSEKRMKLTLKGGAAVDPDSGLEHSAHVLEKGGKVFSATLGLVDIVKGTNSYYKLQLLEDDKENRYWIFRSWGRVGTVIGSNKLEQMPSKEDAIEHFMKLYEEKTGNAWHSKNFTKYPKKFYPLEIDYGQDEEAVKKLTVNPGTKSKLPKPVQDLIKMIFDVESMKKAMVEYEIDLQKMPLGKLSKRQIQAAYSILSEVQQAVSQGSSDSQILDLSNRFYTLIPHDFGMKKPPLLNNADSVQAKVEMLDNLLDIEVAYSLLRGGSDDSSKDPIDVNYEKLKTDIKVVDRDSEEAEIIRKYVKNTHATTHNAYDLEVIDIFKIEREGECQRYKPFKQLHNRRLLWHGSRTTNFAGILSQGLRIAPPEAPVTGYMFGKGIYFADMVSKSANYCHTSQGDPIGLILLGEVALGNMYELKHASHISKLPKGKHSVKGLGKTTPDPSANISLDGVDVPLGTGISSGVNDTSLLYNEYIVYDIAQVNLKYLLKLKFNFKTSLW

Structure (SMILES) | H = Potential Autophagy Induction ([1]; score) | H = Potential Autophagy Induction ([1]; summary score) | L = PARP inhibition [2] | J = NRF2-dependency for H2O2-resistance ([3]; score) | J = NRF2-dependency for H2O2-resistance ([3]; summary score) | F = Potential NRF2 Activation ([4]; 2-point score) | Potential NRF2 Activation (>=2 target genes induced, by >=1.5-fold) [4] | fold induction at 10 µM [4, 5] | fold induction at 10 µM [4, 6] | fold induction at 10 µM [4, 7] | fold induction at 10 µM [4, 8] | fold induction at 10 µM [4, 10] | fold induction at 10 µM [4, 11] | fold induction at 10 µM [4, 13] | fold induction at 10 µM [4, 14] | fold induction at 10 µM [4, 15] | fold induction at 10 µM [4, 16] | fold induction at 10 µM [4, 17] | fold induction at 10 µM [4, 18] | F = Potential NRF2 Activation ([4]; summary score) | further results
O=C(/C(=C/c1ccc(Cl)cc1)c1nc2ccccc2[nH]1)c1ccccc1 [Gr-4D] | 0 | 0 | 0 | 0 | 0 | 2 | YES | 1.52 | 4.55 | 2.56 | 4.55 | 2.56 | > 1.5 | 4.55 | 2.56 | 0.863 | 1.52 | 4.55 | 2.56 | 2 | NRF2-dependency for H2O2-resistance, at 10 uM (experiment 3) - with & without H2O2 ([3]; 10 uM, experiment 3, with & without H2O2): Partial; NRF2-dependency for H2O2-resistance (experiment 3) ([3]; 10 uM, with & without H2O2, NRF2 knockdown in WI-38 cells, YES = resistance reduced by at least 50%, partial = 25% to 50%): Partial; NRF2-dependency of H2O2-resistance (NRF2 siRNA knockdown) ([3]; at least 2 of 3 independent experiments): partially dependent on NRF2; Induction of at least two NRF2-regulated genes (HMOX1, NQO1, GCLC, GSTM1) ([4]; 10 μM, 24 hrs, WI-38): could induce both FOXO3- and NRF2-regulated genes; fold induction at 10 µM [4, 9]: 1.52; fold induction at 10 µM [4, 12]: 1.52; Summary of effects on NRF2-regulated genes: HMOX1, second run ([4]; run RP42 (Gr-1D) / RP52 (Gr-4D), WI-38 cells, 10 μM): 2.40,; Summary of effects on NRF2-regulated genes: NQO1, second run ([4]; run RP52 (Gr-4D), WI-38 cells, 10 μM): 1.49,
CCc1ccc(Oc2nc3ccccn3c(=O)c2/C=C(\C#N)C(=O)NC2CCCCC2)cc1 [Gr-5A] | 0 | 0 | 0 | 0 | 0 | 2 | YES | – | 2.06 | 1.55 | 2.06 | 1.55 | > 1.5 | 2.06 | 1.55 | 0.919 | 1.15 | 2.06 | 1.55 | 2 | –
CCc1ccc(Oc2nc3ccccn3c(=O)c2/C=C(\C#N)C(=O)NCc2ccco2)cc1 [Gr-5B] | 0 | 0 | 0 | 0 | 0 | 2 | YES | 1.27 | 1.73 | 1.94 | 1.73 | 1.94 | > 1.5 | 1.73 | 1.94 | 1.15 | 1.27 | 1.73 | 1.94 | 2 | fold induction at 10 µM [4, 9]: 1.27; fold induction at 10 µM [4, 12]: 1.27
CNC(=O)/C(C#N)=C/c1c(Oc2ccc(C(C)(C)C)cc2)nc2ccccn2c1=O [Gr-5D] | 0 | 0 | 0 | 0 | 0 | 2 | YES | – | 2.49 | 1.78 | 2.49 | 1.78 | > 1.5 | 2.49 | 1.78 | 0.886 | 1.17 | 2.49 | 1.78 | 2 | TXNIP expression, normalized fold change (printed in the column of NRF2-regulated genes) ([4]; 10 μM, 24 hrs, WI-38 cells, qPCR, normalized to B2M, n = 4): TXNIP 0.67, fold; Induction of NRF2-regulated genes: TXNIP normalized fold-change ([4]; Assay 12(o), at 10 uM, qPCR): TXNIP 0.67, fold-change; Summary of effects on NRF2-regulated genes: TXNIP ([4]; fold change, WI-38 cells, 10 μM, 24 hrs): 0.67,
